The conditions of the data set: in vivo, iv. From the text: The present invention thus provides novel and non-obvious antimicrobial polyamide compositions, and methods of using same for treating and preventing mastitis in non-human animals. The methods generally comprise administering to an infected animal an effective amount of the veterinary composition to eliminate or cure, completely or substantially, mastitis-causing pathogen(s).

From patent US10131744B2, “Antimicrobial polyamide compositions and mastitis treatment” (priority 2013, dated 2018) come the findings set out here.

In turn, “poly (4,4′-trimethylene dipiperidine bispropanoic acid-co-1,3-diamino propane)” showed a maximum tolerated dose of approximately 40 mg/kg.
